Data on 42 compounds can be found in ChEMBL document CHEMBL1147425, “Structure-activity relationships of non-imidazole H(3) receptor ligands. Part 3: 5-Substituted 3-phenyl-1,2,4-oxadiazoles as potent antagonists” (Bioorg Med Chem Lett, 2004).

Assay [1] deals with Histamine H3 receptor (Homo sapiens, UniProt Q9Y5N1). Nature of the assay: Binding affinity for human histamine H3 receptor on human colon cells. The assay is classed as cell-based.
Assay [2] addresses Histamine H3 receptor (Rattus norvegicus, UniProt Q9QYN8). Nature of the assay: Binding affinity for rat histamine H3 receptor on rat cortical cells.

Histamine H3 receptor (Homo sapiens, UniProt Q9Y5N1), sequence (Q9Y5N1 whole entry): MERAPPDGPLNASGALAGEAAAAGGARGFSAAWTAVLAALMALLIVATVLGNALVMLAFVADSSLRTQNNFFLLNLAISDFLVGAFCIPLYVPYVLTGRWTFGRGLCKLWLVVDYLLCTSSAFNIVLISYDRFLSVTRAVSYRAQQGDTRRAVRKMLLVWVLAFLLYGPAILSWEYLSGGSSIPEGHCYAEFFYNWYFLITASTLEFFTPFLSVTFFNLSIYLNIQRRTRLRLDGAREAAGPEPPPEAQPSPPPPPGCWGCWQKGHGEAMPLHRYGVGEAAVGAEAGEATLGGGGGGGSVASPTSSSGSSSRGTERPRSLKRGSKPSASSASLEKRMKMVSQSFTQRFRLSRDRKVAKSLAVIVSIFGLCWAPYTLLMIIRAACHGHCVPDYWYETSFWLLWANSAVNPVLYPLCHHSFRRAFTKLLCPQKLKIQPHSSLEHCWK
Histamine H3 receptor (Rattus norvegicus, UniProt Q9QYN8), sequence (Q9QYN8 whole entry): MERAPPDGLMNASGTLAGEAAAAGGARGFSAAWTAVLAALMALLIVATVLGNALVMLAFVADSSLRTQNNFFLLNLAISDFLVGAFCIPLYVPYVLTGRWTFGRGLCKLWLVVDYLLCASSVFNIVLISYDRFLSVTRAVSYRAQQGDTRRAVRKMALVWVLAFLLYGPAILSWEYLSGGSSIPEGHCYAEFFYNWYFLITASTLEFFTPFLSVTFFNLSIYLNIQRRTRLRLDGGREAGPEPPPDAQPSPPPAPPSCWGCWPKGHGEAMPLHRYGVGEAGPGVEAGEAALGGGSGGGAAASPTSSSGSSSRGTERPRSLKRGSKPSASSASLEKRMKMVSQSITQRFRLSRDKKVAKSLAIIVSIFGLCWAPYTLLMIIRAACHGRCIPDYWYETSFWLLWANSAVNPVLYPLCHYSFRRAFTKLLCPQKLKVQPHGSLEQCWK

As a reminder, the Ki is the dissociation constant of the complex between target and ligand, obtained from inhibition or displacement. A lower Ki goes with tighter binding. Take `CCc1nc(-c2ccc(OCCCN3CCCN(C(=O)[C@@H](C)NC(=O)c4ccco4)CC3)cc2F)no1`: the Ki in assay [1] was 120 nM.

As for `CC(C)OCc1nc(-c2ccc(OCCCN3CCCN(C(=O)[C@@H](C)NC(=O)c4ccco4)CC3)cc2F)no1`, the figures for the Ki in assay [2] and in assay [1] were 3.7 nM and 110 nM, respectively.

In the case of `Cc1ccc(C(=O)N[C@H](C)C(=O)N2CCCN(CCCOc3ccc(-c4noc(CC5CCCC5)n4)c(F)c3)CC2)cc1`, the inhibitory constant (Ki) in assay [2] was 1.4 nM; in assay [1], 17 nM.

For the compound `C[C@@H](NC(=O)c1ccco1)C(=O)N1CCCN(CCCOc2ccc(-c3noc(-c4cccnc4)n3)c(F)c2)CC1`, the inhibitory constant (Ki) in assay [2] came out at 6.9 nM; in assay [1], 190 nM.

Consider `C[C@@H](NC(=O)c1ccco1)C(=O)N1CCN(CCCOc2ccc(-c3noc(-c4ccccc4)n3)c(F)c2)CC1` (stereo in doubt; 13p), for which the affinity in assay [1] corresponds to a Ki of 43 nM.

Take `C[C@@H](NC(=O)c1ccco1)C(=O)N1CCCN(CCCOc2ccc(-c3noc(-c4cncs4)n3)c(F)c2)CC1`: the inhibition constant (Ki) in assay [2] worked out at 6.2 nM; in assay [1], 240 nM.

Take `C[C@@H](NC(=O)c1ccco1)C(=O)N1CCCN(CCCOc2ccc(-c3noc(Cc4ccccc4)n3)c(F)c2)CC1`: the Ki in assay [2] came to 1.6 nM; in assay [1], 40 nM.

Compound `C[C@@H](NC(=O)c1ccccc1Cl)C(=O)N1CCN(CCCOc2ccc(-c3noc(CC4CCCC4)n3)c(F)c2)CC1` displayed an inhibition constant (Ki) in assay [1] of 8.6 nM.

With `C[C@@H](NC(=O)c1ccco1)C(=O)N1CCN(CCCOc2ccc(-c3noc(-c4ccccc4)n3)c(F)c2)CC1` (stereo in doubt; 13q), the Ki in assay [2] was found to be 13 nM; in assay [1], 83 nM.

As to `C[C@@H](NC(=O)c1cccnc1)C(=O)N1CCN(CCCOc2ccc(-c3noc(-c4ccccc4)n3)c(F)c2)CC1`, in assay [1], the Ki was 27 nM.

Take `CCCCCC(=O)c1ccc(OCCCN2CCN(C(=O)OCC)CC2)cc1`: the affinity in assay [2] corresponds to a Ki of 1 nM.

For `CC(C)C(NC(=O)OC(C)(C)C)c1nc(-c2ccc(OCCCN3CCCN(C(=O)[C@@H](C)NC(=O)c4ccco4)CC3)cc2F)no1` (stereo partly specified), the inhibition constant Ki in assay [2] was found to be 9.8 nM; in assay [1], 170 nM.

In the case of `Cc1ccc(C)c(C(=O)N[C@H](C)C(=O)N2CCN(CCCOc3ccc(-c4noc(CC5CCCC5)n4)c(F)c3)CC2)c1`, the Ki was found to be 6.6 nM in assay [2] and 75 nM in assay [1].

In the case of `C[C@@H](NC(=O)CN1CCOCC1)C(=O)N1CCN(CCCOc2ccc(-c3noc(-c4ccccc4)n3)c(F)c2)CC1`, the inhibition constant (Ki) in assay [2] is 8.2 nM; in assay [1], 92 nM.

For the compound `C[C@@H](NC(=O)c1ccc(O)cc1)C(=O)N1CCN(CCCOc2ccc(-c3noc(CC4CCCC4)n3)c(F)c2)CC1`, the Ki in assay [2] was 1.3 nM; in assay [1], 16 nM.

Consider `CCCCC(=O)N[C@H](C)C(=O)N1CCN(CCCOc2ccc(-c3noc(CC4CCCC4)n3)c(F)c2)CC1`, for which the inhibition constant Ki in assay [2] turned out to be 2.6 nM; in assay [1], 79 nM.

Take `C[C@@H](NC(=O)c1ccc(Cl)cc1)C(=O)N1CCN(CCCOc2ccc(-c3noc(CC4CCCC4)n3)c(F)c2)CC1`: the inhibitory constant (Ki) in assay [2] stood at 2.8 nM; in assay [1], 24 nM.

In the case of `C[C@@H](NC(=O)c1ccco1)C(=O)N1CCCN(CCCOc2ccc(-c3noc(C4CCCO4)n3)c(F)c2)CC1` (mixture of isomers), the Ki in assay [2] came out at 7.7 nM; in assay [1], 210 nM.

Regarding `C[C@@H](N)C(=O)N1CCCN(CCCOc2ccc(-c3noc(C4CC4)n3)c(F)c2)CC1`, the Ki was 3 nM in assay [2] and 240 nM in assay [1].

The compound `C[C@@H](NC(=O)c1ccc(C#N)cc1)C(=O)N1CCCN(CCCOc2ccc(-c3noc(CC4CCCC4)n3)c(F)c2)CC1` yielded an inhibitory constant (Ki) in assay [1] of 12 nM.

With `C[C@@H](NC(=O)c1ccno1)C(=O)N1CCN(CCCOc2ccc(-c3noc(-c4ccccc4)n3)c(F)c2)CC1`, the inhibition constant Ki in assay [1] came out at 86 nM.

As to `C[C@@H](NC(=O)c1ccco1)C(=O)N1CCN(CCCOc2ccc(-c3noc(C4CC4)n3)c(F)c2)CC1`, the Ki in assay [2] is 1.1 nM; in assay [1] it was 64 nM.

For `CCCCC(=O)N[C@H](C)C(=O)N1CCCN(CCCOc2ccc(-c3noc(CC4CCCC4)n3)c(F)c2)CC1`, the Ki in assay [2] was found to be 1.4 nM; in assay [1], 18 nM.

As to `CC(C)C(=O)N[C@H](C)C(=O)N1CCN(CCCOc2ccc(-c3noc(CC4CCCC4)n3)c(F)c2)CC1`, the inhibitory constant (Ki) in assay [2] was found to be 8 nM; in assay [1], 230 nM.

In the case of `C[C@@H](NC(=O)c1ccco1)C(=O)N1CCCN(CCCOc2ccc(-c3noc(C(C)(C)C)n3)c(F)c2)CC1`, the inhibition constant (Ki) in assay [2] was 4.1 nM; in assay [1] it was 85 nM.

For `CCOCC(=O)N[C@H](C)C(=O)N1CCN(CCCOc2ccc(-c3noc(-c4ccccc4)n3)c(F)c2)CC1`, the values for the inhibition constant (Ki) in assay [2] and in assay [1] were 10 nM and 100 nM, respectively.

As to `C[C@@H](NC(=O)c1ccc(F)cc1)C(=O)N1CCN(CCCOc2ccc(-c3noc(CC4CCCC4)n3)c(F)c2)CC1`, the inhibitory constant (Ki) in assay [2] is 1.5 nM; in assay [1], 17 nM.

Turning to `C[C@@H](NC(=O)c1cccc(OC(F)(F)F)c1)C(=O)N1CCN(CCCOc2ccc(-c3noc(CC4CCCC4)n3)c(F)c2)CC1`, the figures for the Ki in assay [2] and in assay [1] were 24 nM and 65 nM, respectively.

In the case of `C[C@@H](NC(=O)c1ccc(Cl)cc1)C(=O)N1CCCN(CCCOc2ccc(-c3noc(CC4CCCC4)n3)c(F)c2)CC1`, the figures for the Ki in assay [2] and in assay [1] were 5.2 nM and 31 nM, respectively.

Turning to `CC(=O)N[C@H](C)C(=O)N1CCCN(CCCOc2ccc(-c3noc(CC4CCCC4)n3)c(F)c2)CC1`, the inhibition constant (Ki) in assay [2] was found to be 2 nM; in assay [1] it was 40 nM.

On to `C[C@@H](NC(=O)c1ccc(C#N)cc1)C(=O)N1CCN(CCCOc2ccc(-c3noc(CC4CCCC4)n3)c(F)c2)CC1`, for which the inhibitory constant (Ki) in assay [2] amounted to 1.2 nM; in assay [1], 9.5 nM.

`C[C@@H](NC(=O)C(C)(C)C)C(=O)N1CCCN(CCCOc2ccc(-c3noc(CC4CCCC4)n3)c(F)c2)CC1`: the figures for the Ki in assay [2] and in assay [1] were 2 nM and 36 nM, respectively.

In the case of `C[C@@H](NC(=O)c1ccco1)C(=O)N1CCCN(CCCOc2ccc(-c3noc(-c4ccccc4)n3)c(F)c2)CC1`, the Ki in assay [2] amounted to 4.1 nM; in assay [1], 8.6 nM.

As to `C[C@@H](NC(=O)c1cccc(C#N)c1)C(=O)N1CCN(CCCOc2ccc(-c3noc(CC4CCCC4)n3)c(F)c2)CC1`, the inhibition constant (Ki) was determined as 1.5 nM in assay [2] and 35 nM in assay [1].

In the case of `COc1ccc(C(=O)N[C@H](C)C(=O)N2CCCN(CCCOc3ccc(-c4noc(CC5CCCC5)n4)c(F)c3)CC2)cc1`, the results for the inhibitory constant (Ki) in assay [2] and in assay [1] were 1.1 nM and 9.8 nM, respectively.

With `C[C@@H](NC(=O)CCN1CCOCC1)C(=O)N1CCCN(CCCOc2ccc(-c3noc(CC4CCCC4)n3)c(F)c2)CC1`, the inhibitory constant (Ki) in assay [2] turned out to be 0.58 nM; in assay [1], 13 nM.

Take `C[C@@H](NC(=O)CCN1CCOCC1)C(=O)N1CCN(CCCOc2ccc(-c3noc(-c4ccccc4)n3)c(F)c2)CC1`: the inhibitory constant (Ki) in assay [1] is 88 nM.

Turning to `COc1ccc(C(=O)N[C@H](C)C(=O)N2CCN(CCCOc3ccc(-c4noc(CC5CCCC5)n4)c(F)c3)CC2)cc1`, the inhibition constant (Ki) in assay [1] was determined as 11 nM.

`C[C@@H](NC(=O)c1cccs1)C(=O)N1CCN(CCCOc2ccc(-c3noc(-c4ccccc4)n3)c(F)c2)CC1` yielded an inhibition constant (Ki) in assay [1] of 40 nM.

Consider `C[C@@H](NC(=O)[C@@H]1CCCO1)C(=O)N1CCN(CCCOc2ccc(-c3noc(-c4ccccc4)n3)c(F)c2)CC1`, for which the inhibition constant Ki in assay [1] worked out at 80 nM.

`C[C@@H](N)C(=O)N1CCN(CCCOc2ccc(C(=O)C3CC3)cc2)CC1` showed a Ki in assay [1] of 760 nM.

`CC(C)CC(=O)N[C@H](C)C(=O)N1CCN(CCCOc2ccc(-c3noc(-c4ccccc4)n3)c(F)c2)CC1`: the Ki in assay [1] was 56 nM.
